According to paper PMC7177833, “2-Aminopyridine Analogs Inhibit Both Enzymes of the Glyoxylate Shunt in Pseudomonas aeruginosa” (International Journal of Molecular Sciences, 2020):
≈ marks a conversion by molar mass, not a printed value. Read-outs that look alike come from different tables or passages of the source.

What was measured:
P. aeruginosa PAO1 = assay: Antibacterial growth assay (OD600, 18 h) in LB or M9-acetate; assay type: cell-based; conditions: Pseudomonas aeruginosa; for inhibition at 200 µM: final optical density; for MIC: PAO1, MIC = lowest concentration inhibiting >75% of growth
Experimental: Growth assays were carried out using clear, U-bottom, sterile 96-well plates (Thermo Fisher Scientific, Bishop’s Stortford, UK). P. aeruginosa PAO1 overnight cultures were diluted to a starting OD600 of 0.05 in LB medium or M9 medium supplemented with 0.5% acetate. The test compounds were added to the indicated final concentrations, and the plates were covered with gas-permeable adhesive seals (Scientific Laboratory Supplies, Nottingham, UK). Assay controls included 1% DMSO, a positive antibiotic control (ciprofloxacin, 1 µg/mL), and medium-only wells as a control for background absorbance. […]

CYP2C9 = target: T1, CYP2C9 (Homo sapiens, UniProt P11712); assay: CYP450 inhibition in HLM, diclofenac probe; assay type: in vitro ADME; conditions: read-out: IC50 CYP450 2C9
T1 construct: pooled human liver microsomes; tissue BioIVT; host or cells: pooled human liver microsomes
T1 sequence (P11712 whole entry): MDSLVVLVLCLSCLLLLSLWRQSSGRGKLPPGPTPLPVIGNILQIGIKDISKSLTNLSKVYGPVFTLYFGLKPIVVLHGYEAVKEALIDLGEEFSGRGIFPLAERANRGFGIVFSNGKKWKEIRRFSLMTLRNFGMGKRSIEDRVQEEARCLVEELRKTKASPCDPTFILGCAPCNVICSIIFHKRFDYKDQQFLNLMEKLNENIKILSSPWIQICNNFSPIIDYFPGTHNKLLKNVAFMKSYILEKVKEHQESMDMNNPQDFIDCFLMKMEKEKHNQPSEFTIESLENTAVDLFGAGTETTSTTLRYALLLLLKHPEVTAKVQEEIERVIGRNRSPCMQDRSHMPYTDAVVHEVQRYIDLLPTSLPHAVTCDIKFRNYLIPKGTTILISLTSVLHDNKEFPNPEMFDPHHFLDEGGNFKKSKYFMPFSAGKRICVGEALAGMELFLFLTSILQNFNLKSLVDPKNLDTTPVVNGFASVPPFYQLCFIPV
Experimental: The CYP450 inhibition was determined by measuring the reaction products of known CYP450 substrates (probes). Probe solutions were prepared by diluting stock solutions with buffer (100 mM Tris-HCl, pH 7.5, and 0.5 mM EDTA) to the final indicated concentrations (Figure 5), and adding 180 µL of pooled human liver microsomes (20 mg/mL) (BioIVT, West Sussex, UK). These probe solutions were dispensed (195 µL) into clear 96-well plates with low evaporation lids (Corning, Turin, Italy) and the plates were prewarmed to 37 °C in a thermomixer (Hamilton, Agrate Brianza, Italy). Next, 5 µL of the test compound or appropriate positive control (Table S4) were added to the wells and the plates were incubated for a further 5 min. Following this, the reactions were started by adding NADPH regenerating solution (50 µL, see previous Section 4.7) to each well. CYP450 mixtures containing phenacetin, rosiglitazone, mephenytoin, atorvastatin, and nifedipine probes were incubated for 10 min at 37 °C, whereas those with midazolam and diclofenac were incubated for 5 min at 37 °C. Aliquots (100 µL) from each reaction mixture were quenched in 200 µL acetonitrile, and the mixtures were sedimented at 3000 ×g for 10 min at 4 °C. The supernatants were diluted in water containing 5 ng/mL Rolipram as an internal standard for LC-MS/MS analysis. All incubations were carried out in triplicate.
Probe products were analyzed on an API4000 Qtrap mass spectrometer (Applied Biosystems/MDS SCIEX, Monza, Italy) coupled with an Acquity UPLC system (Waters, Milan, Italy) and a CTC-PAL auto-injector (CTC Analytics AG, Zwingen, Switzerland). […] The column temperature was maintained at 60 °C. The injected sample volume was 10 µL, and analytes were eluted at a flow rate of 800 µL/min in a gradient of eluent A (water with 0.1% formic acid) and eluent B (acetonitrile with 0.1% formic acid). […] The analytes were quantified in multiple reaction-monitoring mode. Data were processed, and the percentage control activity was calculated based on a comparison between the ratio of the sample peak area and the peak area.

CYP3A4 = target: T2, CYP3A4 (Homo sapiens, UniProt P08684); assay: CYP450 inhibition in HLM, atorvastatin, nifedipine and midazolam probes; assay type: in vitro ADME
T2 construct: pooled human liver microsomes; tissue BioIVT; host or cells: pooled human liver microsomes
T2 sequence (P08684 whole entry): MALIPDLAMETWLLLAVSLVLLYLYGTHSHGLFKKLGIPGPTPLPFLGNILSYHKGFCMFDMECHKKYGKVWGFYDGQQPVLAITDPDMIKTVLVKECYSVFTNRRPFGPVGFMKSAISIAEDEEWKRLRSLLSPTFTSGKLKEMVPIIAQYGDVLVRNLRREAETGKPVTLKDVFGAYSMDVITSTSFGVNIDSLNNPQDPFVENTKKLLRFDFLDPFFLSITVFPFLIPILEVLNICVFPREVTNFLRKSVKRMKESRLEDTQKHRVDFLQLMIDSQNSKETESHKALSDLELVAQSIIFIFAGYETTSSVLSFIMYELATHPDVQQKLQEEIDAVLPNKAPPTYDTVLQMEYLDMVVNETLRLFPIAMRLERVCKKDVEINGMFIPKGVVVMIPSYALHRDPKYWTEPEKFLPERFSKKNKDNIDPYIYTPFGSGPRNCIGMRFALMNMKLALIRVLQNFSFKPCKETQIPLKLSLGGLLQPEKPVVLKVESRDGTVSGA
Experimental: All incubations were carried out in triplicate.
The column temperature was maintained at 60 °C. […] The column temperature was maintained at 45 °C. […] The analytes were quantified in multiple reaction-monitoring mode.

[1] = target: T3, MSPa (malate synthase G from P. aeruginosa) (Pseudomonas aeruginosa, UniProt Q9I636); assay: Inhibition of purified MSPa enzymatic activity; assay type: biochemical; conditions: for inhibition at 75 µM: read-out: Enzyme Inhibition (%) at 75 µM MSPa
T3 construct: made in house
T3 sequence (Q9I636 whole entry): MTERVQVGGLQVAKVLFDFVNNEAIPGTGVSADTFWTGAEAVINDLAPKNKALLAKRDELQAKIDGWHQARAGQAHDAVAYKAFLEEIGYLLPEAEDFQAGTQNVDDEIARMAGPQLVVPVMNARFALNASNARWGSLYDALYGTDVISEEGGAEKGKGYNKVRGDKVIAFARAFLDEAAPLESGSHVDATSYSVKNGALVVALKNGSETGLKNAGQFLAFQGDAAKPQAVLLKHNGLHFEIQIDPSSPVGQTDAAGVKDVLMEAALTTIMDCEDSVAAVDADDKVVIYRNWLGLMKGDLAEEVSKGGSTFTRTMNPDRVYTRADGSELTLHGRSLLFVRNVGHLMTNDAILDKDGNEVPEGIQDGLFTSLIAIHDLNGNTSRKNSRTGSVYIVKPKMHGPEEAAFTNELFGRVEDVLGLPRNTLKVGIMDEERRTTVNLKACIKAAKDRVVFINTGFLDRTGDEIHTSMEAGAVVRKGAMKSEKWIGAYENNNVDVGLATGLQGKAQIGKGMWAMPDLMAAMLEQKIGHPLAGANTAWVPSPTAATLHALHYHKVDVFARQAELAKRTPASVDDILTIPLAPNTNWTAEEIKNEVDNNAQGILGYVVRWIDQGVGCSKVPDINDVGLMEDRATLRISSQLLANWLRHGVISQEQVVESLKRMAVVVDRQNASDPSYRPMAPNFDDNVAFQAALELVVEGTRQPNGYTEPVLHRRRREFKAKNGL
Experimental: The enzymatic activity of purified ICLPa and MSPa was assayed essentially as previously described. Compounds were added to the reaction mixtures (minus substrates) and incubated for 5 min at 37 °C. The enzyme concentration in the reaction mixtures was 170 nM for ICL and 25 nM for MS (based on the concentration of the monomer in each case). […] The reactions were initiated by the addition of pH-adjusted substrates, and the initial rates were recorded as A324 nm (for ICLPa) and A412 nm (for MSPa) using a Biospectrometer (Eppendorf, Stevenage, UK). Substrate turnover was calculated from the molar extinction coefficient of the assay products: Glyoxylate-phenylhydrazone (16,800/M/cm) for ICLPa and 2-nitro-5-thiobenzoic acid (14,150/M/cm) for MSPa.
All data fitting was performed with GraphPad Prism version 7.04 (GraphPad Software, Inc., La Jolla, CA, USA). The solid lines are the result of fitting the data to the equations denoted in relevant experimental sections. IC50 values were determined by a nonlinear fit using the equation for sigmoidal dose-response with variable slope. In all graphs, unless otherwise stated, the data points are the mean of experimental triplicates, and all error bars correspond to ± standard deviation.

[2] = PAO1, LB medium, read-out: PAO1 Growth Inhibition (%) at 200 µM LB
[3] = PAO1, M9-acetate medium, read-out: PAO1 Growth Inhibition (%) at 200 µM M9ac
[4] = M9 medium with 0.5% acetate, read-out: MIC M9ac
[5] = atorvastatin probe, read-out: IC50 CYP450 3A4-ATR
[6] = midazolam probe, read-out: IC50 CYP450 3A4- MDZ
[7] = nifedipine probe, read-out: IC50 CYP450 3A4-NIF

Structure (SMILES)	inhibition at 200 µM (P. aeruginosa PAO1; [2]) [%]	inhibition at 200 µM (P. aeruginosa PAO1; [3]) [%]	MIC (P. aeruginosa PAO1; LB medium, read-out: MIC LB) [µM]	MIC (P. aeruginosa PAO1; [4]) [µM]	IC50 (CYP2C9) [µM]	IC50 (CYP3A4; [5]) [µM]	IC50 (CYP3A4; [6]) [µM]	IC50 (CYP3A4; [7]) [µM]	IC50 [1] [µM]	inhibition at 75 µM ([1]; 75 µM compound) [%]	Enzyme Inhibition (%) at 75 µM MSPa ([1]; 75 µM compound) [%]
CC(C)(C)OC(=O)/N=C(\NC(=O)OC(C)(C)C)Nc1cc(C#N)ccn1 [SB023]	0	97	> 200	13.5 (≈ 4.88 µg/mL)	> 100	> 100	> 100	> 100	14.5	90.4	
Nc1cc(Cl)ccn1 [Compound 2-AP, 2-amino-4-chloropyridine, reference compound]	0	8	> 200	> 200	> 100		> 100		> 75	18.2	
CC(C)(C)OC(=O)/N=C(\NC(=O)OC(C)(C)C)Nc1cc(Cl)ccn1 [SB002]	0	100	> 200	1.6 (≈ 0.593 µg/mL)	> 100	> 100	> 100	> 100	4.5	> 90	94.5
